Assay results: the supplement of paper PMC10307832

Compound: Cc1cc(Nc2cc(N3CCN(C)CC3)nc(Sc3ccc(NC(=O)C4CC4)cc3)n2)n[nH]1 [Tozasertib]
Experiment: relative viability (nuclei count vs DMSO), 5 days (fraction); higher = more cells survive
Procedure, shortened: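 After an overnight hold at 37 °C, lung cancer cell lines in 1536-well plates were pinned with five library-drug doses (not always all listed), each √10 from the next, on vehicle-anchored plates. The cells stayed 5 days without fresh medium, then a one-step fix, permeabilisation and Hoechst stain preceded 4× imaging and MetaXpress nuclear counts. A plate passed only with control CV under 25% and at least one doubling. Viability is the median, over plates, of treated-well nuclei relative to vehicle-well nuclei.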

| Cell Line | relative viability (0.004 µM) | relative viability (0.01265 µM) | relative viability (0.04 µM) | relative viability (0.1 µM, anchor plate) | relative viability (0.1265 µM) |
| --- | --- | --- | --- | --- | --- |
| 201T | 0.973 | 0.956 | 0.968 | 0.915 | 0.89 |
| A549 | 1.02 | 0.982 | 1.05 |  | 0.488 |
| A-427 | 1.04 | 0.911 | 1.08 | 0.212 | 0.505 |
| ABC-1 | 1.02 | 0.858 | 0.767 | 0.186 | 0.412 |
| BEN | 1.11 | 0.921 | 1.06 |  | 0.759 |
| CAL-12T | 1.09 |  | 0.952 | 0.309 | 0.42 |
| COR-L23 | 1.02 | 0.958 | 0.947 | 0.203 | 0.701 |
| COR-L 105 | 0.956 | 0.974 | 0.957 | 0.36 | 0.473 |
| ChaGo-K-1 | 1.06 | 1 | 1 | 0.233 | 0.858 |
| EKVX | 0.939 | 0.937 | 0.988 | 0.386 | 0.898 |
| EMC-BAC-2 | 1.01 | 0.946 | 0.913 | 0.294 | 0.486 |
| EPLC-272H | 0.981 |  | 1 | 0.296 | 0.55 |
| H3255 | 1.07 | 0.854 | 0.966 | 0.721 | 0.833 |
| HARA | 0.981 |  | 1.01 | 0.11 | 0.519 |
| HCC-15 | 1.06 | 0.936 | 1.04 | 0.393 | 0.687 |
| HCC-44 | 1.02 | 0.903 | 1.01 | 0.974 |  |
| HCC-78 | 1.1 | 0.819 | 1.09 | 0.464 | 0.806 |
| HCC-366 | 0.991 | 1.01 | 1.08 | 0.123 | 0.93 |
| HCC-827 | 1.1 | 1.04 | 1.09 | 0.414 | 0.976 |
| HOP-62 | 1.02 | 0.992 | 0.987 | 0.398 | 0.88 |
| LC-2-ad | 1.06 | 0.913 | 0.928 | 0.453 | 0.494 |
| LCLC-97TM1 | 1.07 | 0.94 | 0.906 | 0.236 | 0.396 |
| LCLC-103H | 1.06 | 1.06 | 1.02 | 0.499 | 0.952 |
| LK-2 | 1.09 | 0.847 | 1.09 | 0.176 | 0.489 |
| LOU-NH91 | 0.787 | 0.918 | 1.1 | 0.659 | 0.9 |

| Cell Line | relative viability (0.004 µM) | relative viability (0.01265 µM) | relative viability (0.04 µM) | relative viability (0.1 µM, anchor plate) | relative viability (0.1265 µM) |
| --- | --- | --- | --- | --- | --- |
| LU99A | 1.05 | 0.904 | 0.824 | 0.282 | 0.594 |
| LXF-289 | 1 | 0.972 | 0.943 | 0.199 | 0.759 |
| NCI-H23 | 1.05 | 0.953 | 0.885 | 0.365 | 0.501 |
| NCI-H322M | 0.92 |  | 1.02 | 0.493 | 0.682 |
| NCI-H358 | 1 |  | 0.977 | 0.109 | 0.37 |
| NCI-H441 | 0.987 |  |  | 0.664 |  |
| NCI-H460 | 1.01 | 0.955 | 1.04 | 0.415 | 0.868 |
| NCI-H520 | 1.07 | 0.934 | 1.07 | 0.458 | 0.547 |
| NCI-H522 | 1.12 | 1 | 1.05 | 0.565 | 0.671 |
| NCI-H596 | 0.993 | 0.883 | 1.01 | 0.919 | 0.988 |
| NCI-H647 | 1.04 |  | 0.926 | 0.279 | 0.458 |
| NCI-H650 | 0.993 | 0.934 | 0.918 | 0.724 | 0.606 |
| NCI-H661 | 0.976 | 0.94 | 1 | 0.367 | 0.68 |
| NCI-H727 | 1.15 | 0.879 | 1.11 | 0.667 | 0.78 |
| NCI-H838 | 0.994 | 0.951 | 1.06 | 0.265 | 0.683 |
| NCI-H1355 | 1.03 | 0.956 | 1.05 | 0.585 | 0.817 |
| NCI-H1395 | 1.03 | 0.817 | 0.776 | 0.768 | 0.495 |
| NCI-H1437 | 1.01 | 0.941 | 0.924 | 0.406 |  |
| NCI-H1563 | 1.04 | 1.07 | 1.02 |  | 0.884 |
| NCI-H1650 | 1.03 | 0.918 | 1.09 | 0.418 | 0.502 |
| NCI-H1651 | 1.02 | 0.949 | 0.984 | 0.698 | 0.922 |
| NCI-H1666 | 0.901 | 0.892 | 0.975 | 0.601 | 0.846 |
| NCI-H1703 | 1.04 | 0.857 | 1.21 |  | 0.556 |
| NCI-H1734 | 1.01 | 0.957 | 0.95 | 0.266 | 0.504 |
| NCI-H1755 | 1.03 | 0.994 | 1.04 | 0.577 | 0.953 |

| Cell Line | relative viability (0.004 µM) | relative viability (0.01265 µM) | relative viability (0.04 µM) | relative viability (0.1 µM, anchor plate) | relative viability (0.1265 µM) |
| --- | --- | --- | --- | --- | --- |
| NCI-H1792 | 1.16 | 0.781 | 1.01 |  | 0.613 |
| NCI-H1793 | 1.03 | 0.76 | 1.01 | 0.384 | 0.892 |
| NCI-H1915 | 1.04 | 0.986 | 0.934 | 0.435 | 0.795 |
| NCI-H1944 | 1.01 | 0.963 | 0.901 | 0.263 | 0.526 |
| NCI-H1975 | 1.04 | 0.91 | 1.06 | 0.759 | 0.85 |
| NCI-H1993 | 1.03 | 0.782 | 0.939 | 0.58 | 0.676 |
| NCI-H2009 | 1.03 | 0.951 | 1 | 0.74 | 0.885 |
| NCI-H2023 | 0.999 | 0.985 | 1.14 | 0.369 | 0.605 |
| NCI-H2085 | 1.02 | 0.982 | 0.984 | 0.84 | 0.915 |
| NCI-H2087 | 1.16 | 1.02 | 1.11 | 0.254 | 0.581 |
| NCI-H2126 | 0.996 | 1.06 | 1.04 | 0.846 | 0.925 |
| NCI-H2170 | 0.964 | 1.01 | 0.954 | 0.755 | 0.893 |
| NCI-H2228 | 1.08 | 1.07 | 1.03 | 0.265 | 0.607 |
| NCI-H2342 | 0.997 |  |  | 0.52 | 0.909 |
| NCI-H2347 | 1.03 | 1 | 1.08 | 0.573 | 0.941 |
| NCI-H2405 | 1.04 | 1.01 | 0.992 | 0.731 | 0.885 |
| NCI-H3122 | 0.965 | 0.976 |  | 0.421 | 1.01 |
| PC-3 [JPC-3] | 0.918 | 0.981 | 1.05 | 0.88 | 0.733 |
| PC-14 | 0.81 | 0.904 | 1.1 | 0.601 | 0.638 |
| RERF-LC-KJ | 0.942 | 0.914 | 1.04 | 0.491 | 0.895 |
| SK-LU-1 | 1.09 | 1.11 | 1.14 | 0.334 | 0.964 |
| SK-MES-1 | 1.03 | 1 | 1.1 | 0.885 | 0.955 |
| SW 1573 | 1.02 | 0.904 | 0.945 | 0.191 | 0.48 |
| UMC-11 | 1.03 | 0.898 | 0.966 | 0.206 | 0.342 |
